Results taken from US20220304926A1, “PHARMACEUTICAL COMPOSITION COMPRISING A COLLOIDAL DISPERSION AND METHODS AND USES THEREOF” (PREBONA AB, priority 2019, published 2022).

Experiments:
[1] = tested on: HCV subgenomic RNA replicon of genotype 1b in Huh7^A2HCV^Rep cells; test: Luciferase activity assay, HCV replicon in vitro replication; assay type: cell-based; conditions: Hepatitis C virus, 500 nM
Excerpt: A hepatoma cell line (Huh7-Lunet) designated Lunet-HlaA2-luc/neoET (Huh7^A2HCV^Rep) and Lunet-HlaA2 (Huh7^A2) were kindly provided by Dr. Volker Lohmann (UniversitätsKlinikum Heidelberg, Molekulare Virologie). The Lunet-HlaA2-luc/neoET expressed ectopically HLA-A2 and a selectable HCV subgenomic RNA replicon of genotype 1b harboring replication-enhancing mutations in NS3 and NS4 (Con1-ET). The replicon also expresses the selectable marker neomycin phosphotransferase, which inactivates the cytotoxic drug G418. The expression of non-structural proteins was driven by the encephalomyocarditis virus IRES (Robinson, M., Yang, H., Peng B. et al. 2010. Antimicrobial Agents and Chemotherapy. 54(8):3099-3106; Pasetto, A., Frelin, L. et al. 2012. J immunol. 189:4510-4519). The replicon cells expressed the firefly luciferase gene fused to the selectable marker by ubiquitin. As control, the parenteral cell line, designated Lunet-HlaA2, was used.
(§1) Cells were seeded in flat bottom 96-well plates (Nuncleon™ Δ Surface, Denmark) at a density of 5 000 cells/well in 100 μL of culture medium without antibiotics (G418, puromycin and blasticidin). […] The final concentration of DMSO never exceeded 0.2%. AGSOL 1000-5-5, diluted in culture medium, was added at several concentrations: 0.01 ng/mL, 0.1 ng/mL, 1 ng/mL, 10 ng/mL, 0.1 μg/mL, 1 μg/mL, 10 μg/mL and 100 μg/mL. AGSOL 100-5-5 was added as described above, excluding the concentration 100 μg/mL. Medium without added cells and cells without any inhibitors constituted negative controls. Each concentration of drug was tested in 5 unique wells and the same protocol was carried out for Huh7^A2HCV^Rep and Huh7^A2 cell lines. Inhibitors were refreshed daily. The experimental assays were performed three times with similar results.
The Lunet-HlaA2 (Huh7^A2) cell line was only used as negative control in this assay. The firefly luciferase gene expressed by the replicon cells catalyses the mono-oxygenation of beetle luciferin according to the reaction described in the following reaction scheme:
At time-points 24, 48, 72 and 96 hours post-addition of inhibitors, culture plates were removed from incubator into laminar flow hood and an equal volume of Luciferase assay reagent to that of the culture medium in each well was added. Three minutes were allowed for complete cell lysis, and subsequently the luminescence was measured. Absorbance and luminescence were read by Infinite 200 PRO reader (Tecan Group Ltd, Maennedorf, Switzerland).
The HCV in vitro replication was quantified by measuring the reporter gene expression. The Huh7^A2HCV^Rep cell line expresses both the HCV replicon and the firefly luciferase gene. The measurement of luciferase correlates with the HCV replication activity.

[2] = tested on: Huh7^A2HCV^Rep and Huh7^A2 cell lines; test: MTT tetrazolium proliferation / cellular toxicity assay; assay type: cell-based
Procedure: as §1, with “Each concentration of drug was tested in 5 unique wells and the same protocol was carried out for Huh7^A2HCV^Rep and Huh7^A2 cell lines. Inhibitors were refreshed daily. The experimental assays were performed three times with similar results.” left out
The 3-[4,5-dimethyltiazol-2-yl]-2,5-diphenyl tetrazolium bromide is cleaved by mitochondrial dehydrogenases of viable cells, leading to purple formazan in the form of insoluble crystals in aqueous solutions but dissolved in acidified isopropanol. The resulting purple solution is spectrophotometrically measured. […]
At time-points 24, 48, 72 and 96 hours post-addition of inhibitors, culture plates were removed from incubator into laminar flow hood. […] The background absorbance of multi-well plates was measured at 690 nm and was subtracted from the 570 nm values. Results were presented as the percentage of viability per condition (inhibitor/concentration) and the absorbance (A570 nm−A690 nm) per time-point for each inhibitor and per cell line. […]

CC(C)(C)NC(=O)N[C@H](C(=O)N1C[C@H]2[C@@H]([C@H]1C(=O)NC(CC1CCC1)C(=O)C(N)=O)C2(C)C)C(C)(C)C (stereo partly drawn) [Boceprevir]
inhibition at 0.5 µM ([1]; 24 hpa): ~85% | inhibition at 0.5 µM ([1]; 48 hpa): ~90% | inhibition at 0.5 µM ([1]; 72 hpa): ~90% | inhibition at 0.5 µM ([1]; 96 hpa): ~90% | cellular viability compared to cells grown without inhibitor ([2]; Boceprevir 100-500 nM, throughout the experiments (24-96 hpa), both cell lines): ≥ 75% | cellular toxicity by kinetic analysis of absorbance values ([2]; Boceprevir, 24, 48, 72 and 96 hours post-addition): did not cause any markedly cellular toxicity
